Experimental data published in the supplement of paper PMC10307832.

Key:
Test in all cases: relative viability (nuclei count vs DMSO), 5 days (fraction); higher = more cells survive
[1] = compound: CC1=CC=C(C=C1)C(=O)CN2C3=C(CCCC3)SC2=N [Pifithrin_alpha] + CCNC(=O)c1noc(-c2cc(C(C)C)c(O)cc2O)c1-c1ccc(CN2CCOCC2)cc1 [Luminespib] (partner 0.01 µM)
Summary of the method: (§1)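 Five library-drug doses in √10 steps were combined with a fixed anchor-drug dose, or a single drug was given alone, by pin tool to lung cancer cell lines in 1536-well plates the day after seeding. Nuclei were stained and counted after 5 days. Relative viability is the nuclei count in treated wells over that in vehicle wells, taken as the median of duplicate plates.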

[2] = compound: CC1=CC=C(C=C1)C(=O)CN2C3=C(CCCC3)SC2=N [Pifithrin_alpha] + CS(=O)(=O)CCNCc1ccc(-c2ccc3ncnc(Nc4ccc(OCc5cccc(F)c5)c(Cl)c4)c3c2)o1 [Lapatinib] (partner 2 µM)
Summary of the method: as §1

Axitinib + Navitoclax = compound: CNC(=O)c1ccccc1Sc1ccc2c(/C=C/c3ccccn3)n[nH]c2c1 [Axitinib] + CC1(C)CCC(c2ccc(Cl)cc2)=C(CN2CCN(c3ccc(C(=O)NS(=O)(=O)c4ccc(N[C@H](CCN5CCOCC5)CSc5ccccc5)c(S(=O)(=O)C(F)(F)F)c4)cc3)CC2)C1 [Navitoclax] (partner 0.5 µM)
Summary of the method: as §1

Bemcentinib + OSI-027 = compound: Nc1nc(Nc2ccc3c(c2)CC[C@@H](N2CCCC2)CC3)nn1-c1cc2c(nn1)-c1ccccc1CCC2 [Bemcentinib] + COc1cccc2cc(-c3nc([C@H]4CC[C@H](C(=O)O)CC4)n4ncnc(N)c34)[nH]c12 [OSI-027] (partner 0.5 µM)
Summary of the method: as §1

Cell Line | relative viability ([1]; first compound 1 µM) | relative viability ([1]; first compound 3.162 µM) | relative viability ([1]; first compound 10 µM) | relative viability ([1]; first compound 31.62 µM) | relative viability ([1]; first compound 100 µM) | relative viability ([2]; first compound 1 µM) | relative viability ([2]; first compound 3.162 µM) | relative viability ([2]; first compound 10 µM) | relative viability ([2]; first compound 31.62 µM) | relative viability ([2]; first compound 100 µM) | relative viability (Axitinib + Navitoclax; first compound 0.005 µM) | relative viability (Axitinib + Navitoclax; first compound 0.05 µM) | relative viability (Axitinib + Navitoclax; first compound 0.1581 µM) | relative viability (Axitinib + Navitoclax; first compound 0.5 µM) | relative viability (Bemcentinib + OSI-027; first compound 0.04 µM) | relative viability (Bemcentinib + OSI-027; first compound 0.1265 µM) | relative viability (Bemcentinib + OSI-027; first compound 0.4 µM) | relative viability (Bemcentinib + OSI-027; first compound 1.265 µM) | relative viability (Bemcentinib + OSI-027; first compound 4 µM) | relative viability (Axitinib + Navitoclax; first compound 0.01581 µM)
PC-3 [JPC-3] | 0.74 | 0.779 | 0.63 | 0.635 | 0.587 | 0.392 | 0.421 | 0.401 | 0.414 | 0.326 | 0.827 | 0.787 | 0.82 | 0.928 | 0.765 | 0.727 | 0.829 | 0.739 | 0.752 | 
HCC-366 |  |  |  |  |  | 0.861 | 1.24 | 1.1 |  | 1.06 | 1.07 | 1.01 | 1.06 | 1.15 | 0.803 | 1.17 | 0.921 | 0.875 | 0.898 | 1.03
NCI-H2405 | 0.757 | 0.571 | 0.536 | 0.668 | 0.515 |  | 0.975 | 0.991 | 0.882 | 0.975 | 0.913 | 0.881 | 0.857 | 1.11 | 0.665 | 0.64 | 0.62 | 0.707 | 0.692 | 0.933
LU99A | 0.304 | 0.302 | 0.244 | 0.206 | 0.281 | 0.852 | 1.21 | 1.12 |  | 1.18 | 0.858 | 0.83 | 0.773 | 0.902 | 0.283 | 0.279 | 0.28 | 0.285 | 0.275 | 0.805
IA-LM |  |  |  |  |  | 0.624 | 0.788 | 0.498 | 0.407 | 0.322 | 0.88 | 0.944 | 0.823 | 0.829 |  |  |  |  |  | 0.79
NCI-H358 | 0.462 | 0.478 | 0.26 | 0.247 | 0.324 | 0.507 | 0.447 | 0.486 | 0.425 | 0.429 |  |  |  |  | 0.799 | 0.952 | 0.837 | 0.99 | 0.939 | 
LCLC-103H | 0.947 | 0.994 | 0.894 | 0.789 | 0.996 |  |  |  |  |  |  |  |  |  | 0.479 | 0.5 | 0.452 | 0.422 | 0.448 | 
ABC-1 |  | 0.642 | 0.766 | 0.508 | 0.262 | 1.36 | 1.24 | 0.923 |  | 1.36 |  |  |  |  | 0.435 | 0.402 | 0.469 | 0.683 | 0.507 | 
NCI-H661 | 0.912 | 0.915 | 0.949 | 0.881 | 0.921 | 0.673 | 0.488 | 0.446 | 0.508 | 0.486 |  |  |  |  | 0.716 | 0.719 | 0.762 | 0.775 | 0.745 | 
NCI-H1648 |  |  |  |  |  |  |  |  |  |  |  |  |  |  | 0.245 | 0.271 | 0.275 | 0.245 | 0.283 | 
NCI-H1563 | 0.489 | 0.549 | 0.47 | 0.467 | 0.539 | 0.623 | 0.863 | 0.931 | 0.769 | 1.01 |  |  |  |  | 0.783 | 0.812 | 0.819 | 0.766 | 0.757 | 
HCC-78 |  |  |  |  |  | 0.432 | 0.77 | 0.693 |  | 0.619 | 0.873 | 0.727 | 0.754 | 0.737 | 0.343 | 0.348 | 0.38 |  | 0.371 | 0.842
SW 900 | 0.2 | 0.194 | 0.142 | 0.167 | 0.19 |  |  |  |  |  |  |  |  |  | 0.446 | 0.544 | 0.71 | 0.473 | 0.419 | 
A549 |  |  |  |  |  | 1.12 | 1 | 0.838 | 0.766 | 0.739 | 1.19 | 1.25 | 1.13 | 1.18 |  |  |  |  |  | 1.24
NCI-H1623 | 0.464 | 0.285 | 0.339 | 0.318 | 0.322 |  |  |  |  |  |  |  |  |  | 0.401 | 0.418 | 0.424 | 0.45 | 0.502 | 
NCI-H2342 | 0.653 | 0.665 | 0.699 | 0.773 | 0.71 |  |  |  |  |  |  |  |  |  | 0.618 | 0.655 | 0.689 | 0.56 | 0.567 | 
NCI-H1299 |  |  |  |  |  | 0.976 | 0.985 | 1.02 | 0.73 | 0.947 | 1.14 | 1.07 | 1.04 | 1.07 |  |  |  |  |  | 1.04
NCI-H522 |  | 1.16 | 1.26 | 0.993 | 1.11 |  |  |  |  |  |  |  |  |  | 0.714 | 0.548 | 0.614 | 0.656 | 0.728 | 
ChaGo-K-1 | 0.563 | 0.528 | 0.477 | 0.38 | 0.581 |  |  |  |  |  | 1.07 | 1.13 | 0.921 | 0.895 | 0.515 | 0.794 | 0.626 | 0.614 | 0.531 | 0.779
EBC-1 |  |  |  |  |  | 0.21 | 0.225 | 0.192 | 0.213 | 0.165 | 0.468 | 0.453 | 0.509 | 0.554 |  |  |  |  |  | 0.443
Calu-6 |  |  |  |  |  | 1.02 | 1.03 | 0.986 | 0.675 | 1.07 | 0.923 | 0.751 | 0.885 | 0.929 |  |  |  |  |  | 0.87
NCI-H441 | 0.355 | 0.369 | 0.383 |  | 0.464 |  |  |  |  |  | 0.521 | 0.727 | 0.754 | 0.994 | 0.583 | 0.695 | 0.765 | 0.558 | 0.659 | 1
NCI-H1703 |  |  |  |  |  | 1.07 | 1.03 | 1.04 | 0.863 | 1.32 | 0.868 | 0.306 | 0.212 | 0.305 |  |  |  |  |  | 0.36
